Source: PubChem BioAssay (NCI)
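Growth conditions: 96-well plates. Treatment: test compound, 48 hours, 5 concentrations. Analysis: linear interpolation between bracketing concentrations; unreached endpoints set to highest concentration. TGI is the concentration that stops growth completely.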

What was measured:
Assay in all cases: NCI tumour cell line growth inhibition, 48 h
A498 renal = test system: A498 renal
HCC-2998 colon = test system: HCC-2998 colon
M14 melanoma = test system: M14 melanoma
HOP-92 NSCLC = test system: HOP-92 NSCLC
SK-MEL-5 melanoma = test system: SK-MEL-5 melanoma
UACC-62 melanoma = test system: UACC-62 melanoma
UACC-257 melanoma = test system: UACC-257 melanoma
CCRF-CEM leukemia = test system: CCRF-CEM leukemia
EKVX NSCLC = test system: EKVX NSCLC
MDA-MB-435 = test system: MDA-MB-435

Structure (SMILES)	TGI (A498 renal) [µM]	TGI (HCC-2998 colon) [µM]	TGI (M14 melanoma) [µM]	TGI (HOP-92 NSCLC) [µM]	TGI (SK-MEL-5 melanoma) [µM]	TGI (UACC-62 melanoma) [µM]	TGI (UACC-257 melanoma) [µM]	TGI (CCRF-CEM leukemia) [µM]	TGI (EKVX NSCLC) [µM]	TGI (MDA-MB-435) [µM]
COc1ccc(N2C(=O)[C@@H]3[C@@H]4CC(C)CC[C@@H]4c4c([nH]c5ccccc45)[C@@H]3C2=O)cc1 (some centres not stated)	35.9	> 100	> 74.9	23	> 100	40.8	> 100	> 100	> 100	–
CC(NC(CC12CC3CC(CC(C3)C1)C2)C(N)=O)c1ccccc1 (configuration not stated)	31.5	40.7	45.7	–	26.3	> 100	41.8	41.9	> 100	41.1
N#CCCN(C(=O)Nc1ccc(NC(=O)N(CCC#N)c2ccccc2)cc1)c1ccccc1	> 100	> 100	> 100	–	> 100	> 100	–	–	> 100	> 100
O=C(OC[C@H]1C[C@H]2C(=O)OCCC[C@H]2O1)c1ccccc1	> 100	–	> 100	> 100	> 100	> 100	> 100	> 100	> 100	> 100
CCOC(=O)/C(C(=O)c1ccc[nH]1)=C1/CCCN1C	> 100	> 100	> 100	–	> 100	> 100	> 100	> 100	> 100	> 100
CCn1c(=O)c2nc(SC)sc2n(-c2ccccc2)c1=S	–	> 100	> 100	> 100	> 100	97.6	> 100	> 100	> 100	> 100
CC1(C)OCC(/C=C\C(O)CC2(C)OCCO2)CO1 (configuration not stated)	> 100	> 100	> 100	> 100	> 100	> 100	> 100	–	> 100	> 100
COC(=O)[C@@H]1CN(C(=O)Cc2ccccc2)C(=O)N1	> 100	–	> 100	> 100	> 100	> 100	> 100	> 100	> 100	> 100
C1CCC(CC2CCC(NC3=NCCO3)CC2)CC1 (configuration not stated)	53.3	37.1	33.8	–	33.7	31.1	30.1	61.9	54.4	32.3
CCOc1c2c(cc3c1C(=O)c1c(OC)cccc1C3=O)C=C(OC)CC2	> 25	–	> 25	> 25	> 25	> 25	> 25	> 25	> 25	> 25
O=C(O)COc1c(Cl)cc(Cl)c(C(c2c(Cl)cc(Cl)c(OCC(=O)O)c2Cl)C(Cl)(Cl)Cl)c1Cl	> 100	28.6	46.8	62.4	40.6	37.9	59.8	–	–	78.2
Cc1csc(NCc2ccc(Cl)cc2)n1	> 100	–	> 100	89.9	59.4	–	> 100	> 100	> 100	> 100
O=C(Cn1c(=O)oc2ccccc21)N(c1ccccc1)c1ccccc1	> 100	–	> 100	–	> 100	> 100	> 100	> 100	> 100	> 100
C=CCCCCCCCCCOC1C=CC(O)C(CO)O1 (configuration not stated)	> 100	> 100	36	> 100	48.1	97.4	61.4	–	> 100	> 100
O=C1OCc2nc3c(c(-c4ccccc4C(F)(F)F)c21)C(=O)OC3	> 100	> 100	> 100	> 100	> 100	> 100	> 100	> 100	> 100	–
CC(=O)N(C(=O)CC(=O)N1N=C(C)C(N=Nc2cccc([N+](=O)[O-])c2)C1=O)c1ccc(Cl)cc1 (configuration not stated)	–	> 10	> 10	> 10	> 10	> 10	> 10	> 10	–	> 10
O=C1C=C2SC3C[C@@]24CC1(O)[N+]1=c2c4c(c(O)c4c2=C(C=N4)CC1)N3	3.33	–	–	2.67	2.91	1.51	2.42	2.03	40.9	–
CCCNC(=O)c1cc(OC)c(OC)cc1NC(=O)C12CC3CC(CC(C3)C1)C2	31.6	–	28.5	34.6	> 100	–	32.8	> 100	32.3	32.8
O=c1[nH]nc(-c2cccc([N+](=O)[O-])c2)[nH]1	> 100	> 100	> 100	–	–	> 100	> 100	> 100	> 100	> 100
COC1=CC(=O)[C@@]2(C)C(C)[C@H](c3ccccc3)[C@H]2C1=O (some centres not stated)	> 100	> 100	> 100	> 100	> 100	> 100	> 100	> 100	> 100	–
c1ccc(-c2cc(-c3ccccc3)nc(-c3ccncc3)c2)cc1	–	> 100	> 100	–	> 100	> 100	> 100	> 100	> 100	> 100
CCOC(=O)c1c(NS(=O)(=O)c2ccccc2)sc2c1CCCC2	> 100	–	> 100	–	> 100	> 100	> 100	> 100	> 100	–
Cc1cc2nc3c(N)nn(CCCN(C)C)c3nc2cc1C	> 100	> 100	> 100	–	> 100	> 100	> 100	–	> 100	> 100
COc1ccc(C(CC(=O)c2cccs2)C(=O)c2ccc3c(c2)OCO3)cc1 (configuration not stated)	> 100	> 100	> 100	–	> 100	> 100	> 100	> 100	> 100	> 100
